{
  "source": "patent US9556153B1",
  "about": "“JAK1 inhibitors” (Eli Lilly and Company, priority 2015, dated 2017)",
  "key": {"[1]": {"tested_on": "pSTAT3 expression in the H1975 xenograft", "assay": "pSTAT3 Rat IVTI (JAK1) Assay, H1975 xenograft", "type": "in vivo", "conditions": "single oral dose, two hours, n=1", "protocol": "pSTAT3 Rat IVTI (JAK1) Assay\nThe purpose of this assay is to measure the ability of test compounds to inhibit the pSTAT3 expression in the H1975 xenograft rat model. Grow H1975 cells according to ATCC specifications at the lowest possible passage number available. Culture and maintain cells in RPMI-1640 supplemented with 10% FBS and incubated at 37° C. in 5% CO2. Harvest cells by standard techniques and mix with BD Biosciences basement membrane matrix (MATRIGEL®) to achieve a 1:1 cell/matrix ratio yielding an inoculation volume of 0.2 mL cell/matrix suspension containing 2e6 cells. Keep cell suspensions on ice throughout the inoculation procedure and start implantations within one hour after cell culture harvest. […] Time course studies are a single dose administered at the TED70 determined from the dose response study. […]\nHarvest and cut tumors to yield approximately 200-250 mm^3 size fragments and immediately drop into a 12×75 mm tube containing 1 mL of ice cold MSD Tris Lysis buffer (Meso Scale Discovery cat# R60TX-2) and 1×HALT (Thermo Scientific product #1861281). […] Cool plate to RT and measure absorbance at or near 562 nm on Molecular Devices Spectra Max. Protein concentrations for each sample are determined using SoftMax Pro 6.3 software program. After tumor samples are quantitated, freeze at −80° C. in the 96 well polypropylene plate and assay at a later date. […]"}, "JAK1": {"molecular_target": "JAK1 (Homo sapiens, UniProt P23458)", "sequence (P23458 whole entry)": "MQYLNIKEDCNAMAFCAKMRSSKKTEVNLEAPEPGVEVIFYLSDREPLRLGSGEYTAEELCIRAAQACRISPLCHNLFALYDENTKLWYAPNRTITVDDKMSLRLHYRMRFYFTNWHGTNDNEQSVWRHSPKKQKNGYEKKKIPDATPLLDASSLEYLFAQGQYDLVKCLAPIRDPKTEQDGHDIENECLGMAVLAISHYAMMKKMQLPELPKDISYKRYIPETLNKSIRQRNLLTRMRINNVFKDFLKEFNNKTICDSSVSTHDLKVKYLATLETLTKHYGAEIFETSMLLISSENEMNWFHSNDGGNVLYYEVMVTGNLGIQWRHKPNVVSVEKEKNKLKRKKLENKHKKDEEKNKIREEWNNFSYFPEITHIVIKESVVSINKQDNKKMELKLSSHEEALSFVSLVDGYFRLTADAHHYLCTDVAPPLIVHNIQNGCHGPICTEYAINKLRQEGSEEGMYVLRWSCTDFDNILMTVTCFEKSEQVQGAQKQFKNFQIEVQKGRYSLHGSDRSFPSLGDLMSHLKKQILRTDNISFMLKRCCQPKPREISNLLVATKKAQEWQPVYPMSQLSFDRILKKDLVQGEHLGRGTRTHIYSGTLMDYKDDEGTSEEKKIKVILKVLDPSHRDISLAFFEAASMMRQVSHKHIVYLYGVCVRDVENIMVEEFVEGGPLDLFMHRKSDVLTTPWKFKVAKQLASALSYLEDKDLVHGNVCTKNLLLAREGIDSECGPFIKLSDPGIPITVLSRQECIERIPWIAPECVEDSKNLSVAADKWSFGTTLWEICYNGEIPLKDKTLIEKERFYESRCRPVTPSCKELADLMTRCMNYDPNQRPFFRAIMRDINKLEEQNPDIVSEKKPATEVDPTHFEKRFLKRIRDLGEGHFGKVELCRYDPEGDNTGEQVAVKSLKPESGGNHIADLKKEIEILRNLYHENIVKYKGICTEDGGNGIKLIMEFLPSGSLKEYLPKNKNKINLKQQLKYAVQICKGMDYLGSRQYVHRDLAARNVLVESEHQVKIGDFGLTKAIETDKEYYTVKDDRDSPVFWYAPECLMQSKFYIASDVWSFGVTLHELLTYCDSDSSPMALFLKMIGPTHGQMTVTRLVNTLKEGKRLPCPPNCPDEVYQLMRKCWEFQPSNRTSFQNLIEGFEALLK", "assay": "JAK LanthaScreen Kinase Assay (TR-FRET), JAK1 in vitro enzyme assay", "type": "biochemical", "conditions": "ATP 20.0 μM; n=6", "description": "JAK1, JAK2 and JAK3 In Vitro Enzyme Assays\nThe JAK LanthaScreen™ Kinase Assay (Invitrogen) is used to determine the ability of test compounds to inhibit JAK1, JAK2 and JAK3 kinase activity. These are TR-FRET assay formats that use long-lifetime terbium labeled antibody as the donor species and GFP-STAT1 as the acceptor species. Use the TR-FRET ratio to monitor JAK kinase activity where an increase in phosphorylation of the GFP-STAT1 results in an increase in the TR-FRET ratio. Perform the kinase reaction using a 12.5 μl reaction volume in shallow black 384-well Proxiplate. Add reagents to obtain final reaction conditions of […] HEPES pH, 1.76 mM Triton X-100, ATP (20.0 μM for JAK1 and JAK3 or 5 μM for JAK2) enzyme assays, 10.0 mM MgCl2, 1 mM EGTA and 0.01% Brij-35, 0.05 mM GFP-STAT1, 14 nM JAK1 enzyme for JAK1, 1.0 nM for JAK2 or 2.5 nM for JAK3 enzyme assays, and 4% DMSO and serial dilutions of test compound (diluted 1:3 from 20,000 to 1 nM). Following ATP/GFP-STAT1 addition, centrifuge the assay plates for 1 minute at 1000 revolutions per minute (RPM). Allow the plates to incubate at RT for 60 minutes and then add 12.5 μl of a stopping buffer containing 20 mM EDTA, 2 nM Terbium-anti-phosphorylated Signal Transducers and Activators of Transcription [phosphorylation Tyrosine 701 amino acid] […]"}},
  "data": [
    {"molecule": "Cc1cc(Nc2cc(O[C@H]3CC[C@@H](NC[C@@H](O)C(F)(F)F)CC3)cc3c2ncn3C)nn1C", "note": "[Example 1, (2R)-3-{[cis-4-({4-[(1,5-Dimethyl-1H-pyrazol-3-yl)amino]-1-methyl-1H-benzimidazol-6-yl}oxy)cyclohexyl]amino}-1,1,1-trifluoropropan-2-ol]", "values": [
      {"measurement": "TEC50 (plasma concentration required to achieve 50% pSTAT3 inhibition)", "setting": "[1]", "result": 3.9, "unit": "μM"},
      {"measurement": "TED50 (dose necessary to achieve 50% pSTAT3 inhibition)", "setting": "[1]", "result": 9, "unit": "mg/kg"},
      {"measurement": "IC50", "setting": "JAK1", "result": "4 ± 0.8", "unit": "nM"}
    ]}
  ]
}
